Test system: diamondback moth (Plutella xylostella)
Assay: Control test against diamondback moth (Plutella xylostella), cabbage leaf spray
Format: in vivo
Settings: 500 ppm active ingredient, sprayed on cabbage seedlings 20 mL/seedling, 2nd instar larvae, after 5 days, 25° C.
Procedure: Next, a Test Example is used to show efficacy of the Present compound against pests. In the following Test Example, the test was carried out at 25° C. The Present compound was formulated according to the process described in the Formulation Example 6 to obtain a formulation, and water containing a spreader (0.03% by volume) was added thereto to prepare a diluted solution containing 500 ppm of the active ingredient. Cabbage (Brassicae oleracea) seedlings (on the developmental stage of the second to third true leaf) were planted in a container, and said diluted solution was sprayed into the leaves of the seedlings at a ratio of 20 mL/seedling. Thereafter, the stems and leaves of the seedlings were cut out, and the leaves were placed into a container lined with a filter paper. Approximately five the 2nd instar larvae of diamondback moth (Plutella xylostella) were released into the container. After 5 days, the number of the surviving insects was examined, and the controlling value was calculated by the following equation. […] Controlling value (%)={1−(Cb×Tai)/(Cai×Tb)}×100 wherein the symbols in the equation represent the following meanings. […]

For `Cc1cccc(-n2nnn(C)c2=O)c1Cn1nnn(-c2cccc(C)c2COc2ccn(-c3ccc(Cl)cc3)n2)c1=O` [Present compound], the “Controlling value (control effects)” value was 100%.
